The subject of assay [1] is Dopa-A (DA-A) (DNA, aptamer) GACGACTCCAGTTTGAAGGTTCGTTCGCAGGTGTGGAGTGAAGTCGTC
The assay is described as follows: ITC. The conditions noted are these: PBS 1x, 2 mM Mg2+; 1x PBS, 2 mM MgCl2, 25 °C; one-site fit.

Assay [2] deals with Dopa-A′ (DNA, aptamer) CGACGCCAGTTTGAAGGTTCGTTCGCAGGTGTGGAGTGACGTCG
Briefly: ITC. The conditions noted are these: PBS 1x, 2 mM Mg2+; 1x PBS, 2 mM MgCl2, 25 °C; one-site fit.

The structures appear in SMILES notation.

For orientation: Kd means a measure of binding affinity in units of concentration. The low end stands for a tighter complex, the high end for a looser complex. Consider `NCCc1ccc(O)c(O)c1`, for which the figures for the Kd in assay [1] and in assay [2] were 2.7 µM and 3.5 µM, respectively.
